Experiments:
[1] = tested on: fresh human peripheral blood neutrophils; test: NETosis on Cl-amidine eluting templates in vitro (DAPI/SYTOX Green BG ratio); type: cell-based
Protocol: 10 mm diameter punches of the templates (n=4) were placed in a 48-well culture plate and disinfected by UV irradiation. Isolated peripheral neutrophils from whole blood were suspended in sterile HBSS and used to seed templates with 600,000 cells in 250 μL of HBSS and cultured for 3 and 6 hours under standard conditions. Cellularized templates were then fixed in 10% buffered formalin and fluorescence quantification of NETs was carried out. Templates with 100 nM SYTOX Green for extracellular DNA followed by DAPI fixed cell nuclei stain at stock concentration (FIGS. 9A, 9B, 10A, 10B, and 11A). The ratio of DAPI (blue) to SYTOX green (BG ratio) pixels per image using MATLAB 2012a was quantified to determine degree of NETosis (FIGS. 12A and 12B).
Infrared scanning and quantification of citrullinated histone H3 (CitH3) was carried out as follows. Templates were incubated with rabbit anti-human histone H3 (citrulline R2+R8+R17) antibody (ABCAM) followed by IRDye 800CW donkey anti-rabbit secondary antibody. The templates were scanned on the 800-nm channel of the Odyssey CLx Infrared Imaging System (LICOR) to generate full-thickness template fluorescence. Template-bound CitH3 was quantified with standard curve of CitH3 vacuum blotted onto a PVDF membrane. Statistical analysis was carried out as follows. […] Then the plot of relative fluorescence against mass of CitH3 was fit with a linear regression. […]

PAD4 = biological target: T1, PAD4 (Homo sapiens, UniProt Q9UM07); test: PAD4 Inhibitor Screening Assay: Cl-amidine activity after exposure to electrospinning solvent HFP; type: biochemical
T1 construct: purchased
T1 sequence (Q9UM07 whole entry, species assumed): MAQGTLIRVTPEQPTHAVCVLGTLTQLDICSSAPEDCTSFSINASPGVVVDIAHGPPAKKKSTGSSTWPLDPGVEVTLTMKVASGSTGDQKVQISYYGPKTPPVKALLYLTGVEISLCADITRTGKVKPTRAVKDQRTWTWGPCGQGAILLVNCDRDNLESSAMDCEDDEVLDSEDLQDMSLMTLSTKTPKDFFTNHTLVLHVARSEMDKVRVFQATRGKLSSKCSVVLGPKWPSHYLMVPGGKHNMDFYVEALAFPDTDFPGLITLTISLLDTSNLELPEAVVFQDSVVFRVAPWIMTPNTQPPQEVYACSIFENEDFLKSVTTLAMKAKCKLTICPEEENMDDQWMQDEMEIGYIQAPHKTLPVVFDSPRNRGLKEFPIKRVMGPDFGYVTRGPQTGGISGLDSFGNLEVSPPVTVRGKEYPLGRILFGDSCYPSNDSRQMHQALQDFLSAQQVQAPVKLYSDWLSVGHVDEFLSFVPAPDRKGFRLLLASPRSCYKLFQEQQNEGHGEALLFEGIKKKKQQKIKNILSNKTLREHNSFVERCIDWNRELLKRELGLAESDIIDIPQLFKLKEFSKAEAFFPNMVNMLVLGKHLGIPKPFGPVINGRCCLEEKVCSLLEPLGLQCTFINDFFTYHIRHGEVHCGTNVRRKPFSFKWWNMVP
Excerpt: The log transform of molarity against average fluorescent intensity was plotted for each concentration (FIG. 6).
As the concentration of drug increases, the relative fluorescence decreases, signifying an increase in the inhibition of PAD4. […] However, the drug was still active producing a sigmoidal curve similar to that of the HBSS samples.
In addition to determining the activity of Cl—Am, the samples exposed to HFP were used to create a standard curve for quantifying unknown Cl—Am concentrations. The four-parameter logistic regression of the HFP exposed samples (Equation 1, x=logarithmic transform of Cl—Am concentration and y=relative fluorescence) has an R2-value of 0.996, and there is no evidence of an inadequate model from the lack of fit test (p=0.28).
Lower fluorescence indicated greater inhibition of PAD4. No evidence of lack of fit (p=0.28) was found for the four-parameter regression of HFP exposed samples. […] This provided a standard curve for quantifying unknown Cl-amidine from elution studies.

Structure (SMILES): N=C(CCl)NCCCC(NC(=O)c1ccccc1)C(N)=O [Cl-amidine, N-α-benzoyl-N5-(2-chloro-1-iminoethyl)-L-ornithine amide]
- effect of eluted Cl-amidine on NETosis ([1]; on large diameter templates, 3 hours): opposite trend
- effect of eluted Cl-amidine on NETosis ([1]; on small diameter templates, 3 hours (p<0.05)): significantly attenuated NETosis
- lowest concentration inhibiting PAD4 activity (PAD4; after exposure to HFP): 1.2 µM
- activity against PAD4 after exposure to HFP versus HBSS samples (PAD4; at two concentrations, 5.9 and 29.5 μM (p<0.0001)): significantly reduced its activity against PAD4
- efficacy after exposure to solvent HFP (PAD4; sigmoidal curve similar to HBSS samples): retained efficacy after exposure to HFP

Source: patent publication US11202850B2, “Compositions and methods for inhibiting inflammation” (THE UNIVERSITY OF MEMPHIS RESEARCH FOUNDATION, priority 2018, dated 2021)
